Measurements from patent publication US20220072131A1, “Dihydroxyphenyl Neurotransmitter Compounds, Compositions And Methods” (Auspex Pharmaceuticals, Inc., priority 2013, published 2022).

Key:
[1] = biological target: T1, monoamine oxidase-A (MAO-A) (Homo sapiens, UniProt P21397); assay: In vitro monoamine oxidase A degradation assay; format: in vitro ADME; conditions: incubated with MAO-A; compared to non-deuterated norepinephrine; disappearance of norepinephrine tracked
T1 sequence (P21397 1-527): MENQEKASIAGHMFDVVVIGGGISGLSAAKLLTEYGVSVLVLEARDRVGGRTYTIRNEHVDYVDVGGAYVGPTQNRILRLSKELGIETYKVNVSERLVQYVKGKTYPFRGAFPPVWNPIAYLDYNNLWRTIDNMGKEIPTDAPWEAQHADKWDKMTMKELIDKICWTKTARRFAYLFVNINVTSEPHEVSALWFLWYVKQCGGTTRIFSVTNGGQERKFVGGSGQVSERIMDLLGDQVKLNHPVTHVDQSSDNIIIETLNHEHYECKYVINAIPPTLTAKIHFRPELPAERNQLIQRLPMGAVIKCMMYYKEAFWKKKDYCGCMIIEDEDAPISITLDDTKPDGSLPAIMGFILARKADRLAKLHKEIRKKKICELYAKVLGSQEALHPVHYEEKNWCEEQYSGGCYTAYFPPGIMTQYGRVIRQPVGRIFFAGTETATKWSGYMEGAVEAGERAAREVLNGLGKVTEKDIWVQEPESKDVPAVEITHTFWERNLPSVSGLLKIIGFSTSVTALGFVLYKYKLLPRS
Protocol: Norepinephrine and d6-norepinephrine were incubated with monoamine oxidase-A (MAO-A).
The appearance of 3,4-dihydroxyphenylglycolaldehyde and the disappearance of norepinephrine were tracked. Compared to non-deuterated norepinephrine, d6-norepinephrine was associated with about a 5-fold decrease in digestion by MAO-A and about a 75% decrease in 3,4-dihydroxyphenylglycolaldehyde production.
The assay method is a batch alumina extraction followed by liquid chromatography with electrochemical detection. The post-column electrodes are arranged in series, with an oxidizing potential at the first electrode and reducing potential at the third. This series arrangement of flow-through electrodes reduces the solvent front substantially and improves the sensitivity and specificity for detecting reversibly oxidized species such as catechols. 3,4-Dihydroxyphenylglycolaldehyde is identified by a broad, short peak within the solvent front.

[2] = tested on: anesthetized rats; assay: Change of mean arterial blood pressure in anesthetized rats following intravenous administration; format: in vivo, rat; conditions: 2 mg/kg, in comparison to the same dose of L-threo-DOPS
Protocol: Change of Mean Arterial Blood Pressure in Anesthetized Rats Following Intravenous Administration of 2 mg/kg L-Threo-2,3-Dideutero POPS in Comparison to the Same Dose of L-Threo-DOPS

Row | SMILES | decrease in digestion by MAO-A [1] | Change of mean arterial blood pressure [2]
1 | [2H]c1c([2H])c([C@@]([2H])(O)C([2H])([2H])N)c([2H])c(O)c1O [d6-norepinephrine] | ~5 fold | –
2 | [2H]C(N)(C(=O)O)C([2H])(O)c1ccc(O)c(O)c1 [L-threo-2,3-dideutero DOPS] | – | enhanced and prolonged increase
